How the values were obtained:
human NHE1 = test: internal pH changes in PS120 fibroblasts transfected with human NHE1; assay type: cell-based; details: 5 μg/ml, FIG. 2B
Method: PS120 fibroblasts transfected with rabbit: or human NHE1 were grown as described above.

rabbit NHE3 = rabbit NHE3 (Oryctolagus cuniculus, UniProt P26432)
Method: Internal pH was measured either following acid loading or in the absence of an acid-loading challenge, with the results shown in FIGS. 1A and 1B.
Specifically, PS120 fibroblasts transfected with rabbit NHE3 were grown in supplemented Dulbecco's-modified Eagle's medium as described by Levine et al., J. Biol. Chem. 268, 1993, 25527-25535. […] For cells not acid-preloaded, the actual internal pH value was monitored as a function of time following addition of squalamine, with the results depicted in FIG. 1B.
PS120 fibroblasts transfected with rabbit NHE3 were grown and acid preloaded by exposure to 40 mM NH4 Cl as described above in conjunction with FIGS. 1A and 1B. Internal cellular pH changes expressed as the rate of pH recovery as a function of restored extracellular sodium ion concentration following exposure to 10 μg/ml of the compound were assayed with the fluorescent dye BCECF-AM as described above.

B16 melanoma = test: suppression of growth of B16 melanoma in C57B mice; assay type: in vivo, mouse
Method: The growth of B16 melanoma in C57B mice is dependent upon neovascularization.
Using the growth of B16 melanoma cells in C57B mice, a recognized model for the evaluation of inhibitors of angiogenesis on the growth of cancers, the effects of subcutaneous, intraperitoneal and oral administration of squalamine were evaluated.
Based on the idea that tumor growth involves both the clonal expansion of a malignant cell along with the development of a supporting vascular supply, a combination of compound 1436 with squalamine was tested to determine whether it would achieve a synergistic effect on solid tumor growth. This concept was evaluated in the B16 melanoma model.
Animals were implanted with B16 melanoma followed by treatment with compound 1436 or 1256 administered in a combined schedule or separately. […] Thus, a combination of these two compounds achieves a therapeutic benefit in tumors dependent on neovascularization that may prevent metastatic spread.

Chain of rabbit NHE3 (P26432 30-832): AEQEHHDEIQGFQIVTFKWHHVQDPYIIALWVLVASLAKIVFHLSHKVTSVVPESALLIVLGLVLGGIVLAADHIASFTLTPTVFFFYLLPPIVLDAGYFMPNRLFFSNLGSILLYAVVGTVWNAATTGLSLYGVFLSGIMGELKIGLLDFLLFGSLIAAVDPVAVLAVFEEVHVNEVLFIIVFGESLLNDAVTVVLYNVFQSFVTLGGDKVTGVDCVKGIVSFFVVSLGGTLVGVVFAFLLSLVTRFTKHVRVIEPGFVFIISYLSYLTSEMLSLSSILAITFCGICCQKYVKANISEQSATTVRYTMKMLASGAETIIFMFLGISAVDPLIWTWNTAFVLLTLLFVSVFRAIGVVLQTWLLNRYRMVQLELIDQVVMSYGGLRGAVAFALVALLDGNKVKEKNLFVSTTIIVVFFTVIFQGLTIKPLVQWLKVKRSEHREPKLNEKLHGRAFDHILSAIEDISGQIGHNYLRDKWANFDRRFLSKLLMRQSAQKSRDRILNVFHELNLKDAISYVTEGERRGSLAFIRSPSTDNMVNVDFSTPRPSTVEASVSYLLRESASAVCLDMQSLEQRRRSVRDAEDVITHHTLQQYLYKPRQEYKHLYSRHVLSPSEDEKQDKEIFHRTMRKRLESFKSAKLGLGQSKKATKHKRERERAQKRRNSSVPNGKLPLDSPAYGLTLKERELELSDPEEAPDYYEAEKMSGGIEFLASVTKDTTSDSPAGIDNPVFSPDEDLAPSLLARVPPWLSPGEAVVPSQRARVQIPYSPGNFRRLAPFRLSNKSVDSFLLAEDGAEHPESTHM

CC(C)[C@@H](CC[C@@H](C)[C@H]1CC[C@H]2[C@@H]3[C@H](O)C[C@H]4C[C@@H](NCCCNCCCCN)CC[C@]4(C)[C@H]3CC[C@]12C)OS(=O)(=O)O [Compound 1256]
inhibition of human NHE1 (human NHE1): no inhibitory activity
inhibition of NHE3 (rate of pH recovery) (rabbit NHE3; 5 μg/ml squalamine, FIGS. 1A, 1B): inhibited NHE3 with respect to proton concentration at both Km and Vmax levels
resting pH of cells (rabbit NHE3; 5 μg/ml, FIG. 1B, not acid-preloaded): the resting pH of these cells was also inhibited
impact on tumor volume (B16 melanoma; 5 mg/kg/day alone, FIG. 12): no significant impact on tumor volume
body weight and hematologic parameters (B16 melanoma; mouse, in vivo): no significant depression
tumor volume (B16 melanoma; subcutaneous, intraperitoneal or oral, FIGS. 4A-4C): dose-dependent suppression of tumor volume

Source: patent US5763430A, “Method of treating a viral infection by administering a steroid compound” (priority 1995, dated 1998)
